Assay results reported in patent publication US20240180845A1, “THIN-SHELL POLYMERIC NANOPARTICLES AND USES THEREOF” (Academia Sinica, priority 2016, published 2024).

Legend:
[1] = design: species or system mice; conditions: mouse, in vivo
Description: FIG. […], is a depiction of STING agonist-loaded nanoparticles on enhancing lymphatic cytokines while minimizing systemic cytokines. • A: Induction of TNF-α in a mouse dendritic cell line following incubation with cd-GMP nanoparticles and free cd-GMP. • B: Induction of IL-6 in the same mouse dendritic cell line. • C: Induction of IFN-β in the mouse dendritic cell line. • D: Activation of JAWSII upon incubation with equivalent doses of cd-GMP in free molecule form and in nanoparticle formulation. • E: Quantification of lymph node IFN-β 48 hours following footpad injection of free cd-GMP or nanoparticle cd-GMP. • F: Level of systemic TNF-α following footpad injection of free cd-GMP and nanoparticle cd-GMP. Immune potentiation by the cd-GMP nanoparticles was further compared to free cd-GMP in vivo in mice. 48 hours following footpad injections, the draining popliteal lymph nodes were collected for IFN-β quantification. […] In addition, the systemic level of TNF-α, an indicator of reactogenicity, was also monitored following the footpad administration of free cd-GMP and cd-GMP nanoparticles.

[2] = Encapsulation efficiency and loading of cargoes in thin-shell hollow PLGA nanoparticles; format: physicochemical

- serum level of TNF-α, indicator of reactogenicity [1]: elevated level
- encapsulation efficiency ([2]; cargo in thin-shell hollow PLGA nanoparticles, listed as cd-GMP): about 40%
- STING agonist molecules per nanoparticle ([2]; hollow particles 100 to 200 nm in diameter): approximately 2,000
Compound: Nc1nc2c(ncn2[C@@H]2O[C@@H]3COP(=O)(O)O[C@H]4[C@@H](O)[C@H](n5cnc6c(=O)[nH]c(N)nc65)O[C@@H]4COP(=O)(O)O[C@H]3[C@H]2O)c(=O)[nH]1 [cyclic di-GMP]
